The text below walks through data of patent publication US20050209278A1, “Piperidinyl- and piperazinyl-sulfonylmethyl hydroxamic acids and their use as protease inhibitors” (priority 2002, published 2005).

The structures appear in SMILES notation.

The first assay concerns the target T1, MMP-13 (Homo sapiens, UniProt P45452).
T1 construct: made in house; host or cells: baculovirus / insect cells
Description: In vitro MMP inhibition, IC50 determination (fluorogenic substrate I). Type of assay: biochemical. The settings on record: value in parentheses; read-out: MMP-13 (IC-50).
With `CCCCOc1ccc(N2CCN(S(=O)(=O)C3(C(=O)NO)CCN(C(=O)CCC)CC3)CC2)cc1` [Example 290], the IC50 was 0.35 nM.

Staying with this assay, now noted: value in parenthesis; read-out: MMP-13 (IC-50).
As to `COCCN1CCC(C(=O)NO)(S(=O)(=O)N2CCN(c3ccc(C#N)cc3)CC2)CC1` [Example 186], the IC50 amounted to 2.63 nM.

For the molecule `CCC(CC)Cc1ccc(N2CCN(S(=O)(=O)C3(C(=O)NO)CCN(CCOC)CC3)CC2)cc1` [Example 188], the IC50 stood at 4.01 nM.

Take `CCOCCCc1ccc(N2CCN(S(=O)(=O)C3(C(=O)NO)CCN(CCOC)CC3)CC2)cc1` [Example 179]: the IC50 amounted to 0.53 nM.

Turning to `COCCN1CCC(C(=O)NO)(S(=O)(=O)N2CCN(c3ccc(CC4CCCCC4)cc3)CC2)CC1` [Example 181], the IC50 is 18 nM.

`CCOc1ccc(N2CCN(S(=O)(=O)C3(C(=O)NO)CCN(CCOC)CC3)CC2)cc1F` [Example 184]: the IC50 was found to be 2.26 nM.

`COCCN1CCC(C(=O)NO)(S(=O)(=O)N2CCN(c3ccc(CCC4CCCC4)cc3)CC2)CC1` [Example 182]: the IC50 was 0.14 nM.

As to `CCc1cnc(N2CCN(S(=O)(=O)C3(C(=O)NO)CCN(CCOC)CC3)CC2)nc1` [Example 187], the IC50 was 47.3 nM.

With `CCCOc1ccc(N2CCN(S(=O)(=O)C3(C(=O)NO)CCN(CCOC)CC3)CC2)cc1F` [Example 185], the IC50 is 1.63 nM.

Turning to `COCCCc1ccc(N2CCN(S(=O)(=O)C3(C(=O)NO)CCN(CCOC)CC3)CC2)cc1` [Example 180], the IC50 stood at 1.21 nM.

For `COCCN1CCC(C(=O)NO)(S(=O)(=O)N2CCN(c3ccc(CC4CCC4)cc3)CC2)CC1` [Example 183], the IC50 is 2.76 nM.
